Measurements taken from PubChem BioAssay AID1320 (NMMLSC, 2008).
Calls of active or inactive are those of the source. How the calls were made is not given here.

Target: Bcl-2-related protein A1 (Homo sapiens) (UniProt Q16548)
Test: inhibitors of Bim binding to Bfl-1, dose response, biochemical, multiplexed, bead-based flow cytometry (AID 1320); on percent span (inhibition): test concentration not given here
Conditions: Bim peptide-Bfl-1 binding, fluorescence; for percent span (inhibition): hits give high values

Bcl-2-related protein A1 (Homo sapiens), sequence (Q16548 whole entry, looked up): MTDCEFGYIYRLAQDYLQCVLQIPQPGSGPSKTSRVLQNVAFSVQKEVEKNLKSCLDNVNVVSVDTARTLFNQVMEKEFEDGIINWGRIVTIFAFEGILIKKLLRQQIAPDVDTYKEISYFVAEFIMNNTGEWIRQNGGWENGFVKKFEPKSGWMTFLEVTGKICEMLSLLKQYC

| SMILES | percent span (inhibition) | EC50 |
| --- | --- | --- |
| COc1ccc(N2CCN(C(=O)c3cc(=O)[nH]c4ccccc34)CC2)cc1 | inactive | – |
| COc1ccc(OC)c(NC(=O)COC(=O)c2cc3c(s2)CCC3)c1 | inactive | – |
| Cc1cccc(-n2c(O)c(/C=N/N3CCOCC3)c(=O)[nH]c2=S)c1 | inactive | – |
| COc1cc2[nH]c(=S)nc(NCC3CCCO3)c2cc1OC (stereo not drawn) | inactive | – |
| COc1ccc(N2CCN(C(CNS(=O)(=O)c3ccc4c(c3)OCCO4)c3ccco3)CC2)cc1 (stereo not drawn) | inactive | – |
| COc1ccc(COC(=O)NNC(=O)c2ccccc2Cl)cc1 | inactive | – |
| Cc1cc(NC(=O)CCCC(=O)N(CC(=O)NC2CCCCC2)c2ccccc2)no1 | inactive | – |
| O=C(NCc1ccco1)C1CC2CCC1C2 (stereo not drawn) | inactive | – |
| O=C(c1ccccc1NS(=O)(=O)c1ccc(Br)s1)N1CCCC1 | inactive | – |
| Cc1cc(N2CCN(C)CC2)nc2ccc(NC(=S)N3CCN(c4cccc(Cl)c4)CC3)cc12 | inactive | – |
| CN1N=C(C(=O)N2CCCC(C(=O)c3cccc(C(F)(F)F)c3)C2)CCC1=O (stereo not drawn) | inactive | – |
| Cc1cc(C)c2c(N)c3cccc(C)c3nc2n1 | inactive | – |
| CCOC(=O)c1c2c3c(cccc3[nH]c1=O)C(=O)c1ccccc1-2 | inactive | – |
| CCNCc1cc(Br)c(OCC(=O)Nc2ccccc2)c(OC)c1 | inactive | – |
| O=C(O)c1ccccc1NSc1ccccc1[N+](=O)[O-] | inactive | – |
| Fc1ccc(C2=Nn3c(Cc4ccccc4F)nnc3SC2)cc1 | inactive | – |
| O=C1C(Cl)=C(Nc2ccccc2O)C(=O)N1c1ccccc1 | inactive | – |
| CCc1ccc(/C=C/C(=O)c2cc(Br)ccc(=O)c2O)cc1 | inactive | – |
| CS(=O)(=O)NN1C(=O)c2ccccc2NC1c1cccs1 (stereo not drawn) | inactive | – |
| O=C(CNC(=O)c1ccco1)NCC(=O)OCc1ccccc1Br | inactive | – |
| CC1CC2=C(NC(=S)NC2c2cccc(F)c2)/C(=C/c2cccc(F)c2)C1 (stereo not drawn) | – | inactive |
| CNc1ccc(Br)cc(C(=O)/C=C/c2ccc(OC)cc2OC)c1=O | inactive | – |
| CC(C)c1ccc(/C=N/NC(=O)c2ccccc2Cl)cc1 | inactive | – |
| CC(C)(C)C(=O)NC(NC(=S)Nc1ccc(S(N)(=O)=O)cc1)C(Cl)(Cl)Cl (stereo not drawn) | inactive | – |
| CCOC(=O)C1CCCN(c2ncnc3c2cnn3-c2cccc(C)c2)C1 (stereo not drawn) | inactive | – |

| SMILES | percent span (inhibition) | EC50 |
| --- | --- | --- |
| COC(=O)c1c(NC(=O)COc2ncnc3ccccc23)sc(C)c1C | inactive | – |
| COc1ccc(-c2nnc(SCC(=O)Nc3nc4ccccc4s3)n2C)cc1 | inactive | – |
| Cc1ccc(Nc2nc(-c3c(C)nc4ncccn34)cs2)cc1 | inactive | – |
| Cc1cc(Cl)ccc1N=c1ssnc1Cl | inactive | – |
| O=C(Nc1ccncc1)c1cc2ccccc2o1 | inactive | – |
| COc1ccccc1N(C)S(=O)(=O)c1ccc(C(=O)OCC(N)=O)cc1 | inactive | – |
| CN(C)C(Cc1ccccc1)C(=O)c1cccs1 (stereo not drawn) | inactive | – |
| OC(CNC1CCCCC1)COCCOc1ccc(Br)cc1 (stereo not drawn) | inactive | – |
| COc1ccc(C2=Nn3c(nnc3-c3ccccn3)SC2)cc1OC | inactive | – |
| O=C(C[n+]1ccc(-c2nnc3n2CCC3)cc1)c1ccc(Cl)cc1 | inactive | – |
| CCOC(=O)C1(Cc2cccc(OC)c2)CCN(Cc2cccc(OC)c2OC)CC1 | inactive | – |
| OCCC1CN(Cc2nc3c(s2)CCCC3)CCN1Cc1ccsc1 (stereo not drawn) | inactive | – |
| Cc1cc(-c2nnc(CCC(=O)NC(C)c3cccc4ccccc34)o2)no1 (stereo not drawn) | inactive | – |
| CS(=O)(=O)NN1C(=O)c2ccccc2NC1c1ccccc1 (stereo not drawn) | inactive | – |
| Clc1ccc2c(N/N=C/c3cccc(Br)c3)ccnc2c1 | inactive | – |
| COc1ccc2cc(CN(CCc3ccccc3)Cc3nnnn3CC3CCCO3)c(=O)[nH]c2c1 (stereo not drawn) | inactive | – |
| O=S1(=O)N=C(N(CCO)/N=C/C=C/c2ccccc2)c2ccccc21 | inactive | – |
| CCOc1ccc(C(=O)Nc2nnn(CC)n2)cc1 | inactive | – |
| COc1ccccc1OCc1ccc(C(=O)Nc2ccccc2F)cc1 | inactive | – |
| CCOc1ccccc1-n1c(=O)c2ccccc2c2ccccc2c1=O | inactive | – |
| CN(C)/C=C/C(=O)c1ccc(C(F)(F)F)cc1F | inactive | – |
| CCn1c(C)c(/C=N/Nc2nc3ccccc3s2)c2ccccc21 | inactive | – |
| CCOc1cc(/C=C2/N=C(C)C(C(=O)OC)=C2O)ccc1O | inactive | – |
| CCCn1c(SCC(=O)Nc2ccccc2-c2ccccc2)nnc1-c1ccoc1C | inactive | – |
| N/C(Cc1ccc(Cl)c(Cl)c1)=N\OC(=O)c1cccs1 | inactive | – |

| SMILES | percent span (inhibition) | EC50 |
| --- | --- | --- |
| O=C1NC(=O)C2(Cc3c(nc4ccccn4c3=O)N3CCCCCC32)C(=O)N1Cc1ccccc1 (stereo not drawn) | inactive | – |
| Cc1ccc2cc(C)c(Sc3nnnn3-c3ccccc3)nc2c1 | inactive | – |
| COc1ccc(C(=S)N2CCCCCC2)cc1 | inactive | – |
| COc1cccc(-n2nnnc2SCC(=O)Nc2cccc(NC(C)=O)c2)c1 | inactive | – |
| O=C(CSc1ccc2nnc(-c3ccccn3)n2n1)Nc1nccs1 | inactive | – |
| O=C(c1cc2ccccc2oc1=O)N(c1ccccc1)C1C=CS(=O)(=O)C1 (stereo not drawn) | inactive | – |
| Fc1cccc(Nc2nc(-c3ccncc3)nc3ccccc23)c1 | inactive | – |
| CNc1ccccc(C(=O)/C=C/c2ccccc2OC)c1=O | inactive | – |
| COc1ccc(/C=C/C(=O)Nc2sc(Cc3ccccc3)c(C)c2C(N)=O)cc1 | inactive | – |
| Cc1c(NC2=C(Cl)C(=O)N(c3ccccc3)C2=O)c(=O)n(-c2ccccc2)n1C | – | inactive |
| COC(=O)c1cccc(-n2c(C)cc(C=O)c2C)c1 | inactive | – |
| CN(/N=C/c1ccncc1)C1=NS(=O)(=O)c2ccccc21 | inactive | – |
| CCC(=O)NC(c1ccc(C)cc1)c1cc([N+](=O)[O-])c2cccnc2c1O (stereo not drawn) | inactive | – |
| O=c1[nH]c(SCc2nc3ccccc3c(=O)n2-c2ccccc2C(F)(F)F)nc2ccccc12 | inactive | – |
| O=[N+]([O-])c1ccc(N/N=C/c2ccc(O)c(O)c2O)c(S(=O)(=O)N2CCOCC2)c1 | – | 4.48 µM |
| O=C(Nc1n[nH]c(C(F)(F)F)n1)C1CC1 | inactive | – |
| COc1ccc(/C=C2\SC(=O)NC2=S)cc1OC | inactive | – |
| N#C/C(=C(/O)CN1CCN(c2ccccc2F)CC1)c1nc(-c2ccccc2)cs1 | inactive | – |
| COc1ccc(Cl)cc1-n1c(C)cc(C=O)c1C | inactive | – |
| Cc1cc(-c2nn(-c3ccccc3)cc2/C=C2\SC(N)=NC2=O)ccc1OC(C)C | inactive | – |
| C=CCN1C(=O)/C(=C/c2ccsc2)SC1=S | inactive | – |
| Fc1ccc(Cn2nnnc2C(c2ccc(Cl)cc2)N2CCSCC2)cc1 (stereo not drawn) | inactive | – |
| CCCCC(=O)Nc1ccc(C(=O)N2CCC(C(=O)OCC)CC2)cc1 | inactive | – |
